What was measured:
[1] = molecular target: T1, ER (Homo sapiens (Human), UniProt P03372); test: MCF-7 ER degradation assay (high content imaging); type: cell-based; conditions: MCF-7 cells, 1 nM compound, DMSO control as baseline; for MCF7 ER Degradation at 4 hr (%): 4 hours treatment; for MCF7 ER Degradation at 24 hr (%): 24 hours treatment
Procedure: The level of ER degradation by SERD described in this patent was analyzed by cell based high content imaging method. […] Then, 1 μL of compound solution (in DMSO) was added to the cells to make a final concentration of 1 nM per each well of treated cells. DMSO at the same final concentration (%) per each well was used to serve as negative control on each plate. After 4 hours or 24 hours of treatment at 37° C. with 5% CO2, the cells were fixed and permeabilized. Media from each well was aspirated and cells were gently washed with 1×PBS for 5 minutes and the wash procedure was repeated 3 times. Cells was then fixed with 4% formaldehyde freshly made in 1×PBS at room temperature for 20 minutes, followed by gentle washing with 1×PBS, 3 times for 5 minute each. The assay plate was incubated with 200 μl of 1×PBS containing 0.2% Triton-X100 for 5 minutes at room temperature, cells were then washed again with 1×PBS 3 times for 5 minutes each. After this, cells were incubated with the blocking buffer (1×PBS with 5% BSA) at room temperature for 1 hour. For immunostaining, blocking buffer was removed and primary anti-ER antibody (ER1D5, Santa Cruz) diluted in blocking buffer (1:400) was added to each well and cells were incubated overnight at 4° C. The next day, cells were washed with 1×PBS for 3 times with 5 minute each. […] Cells were washed with 1×PBS for 3 times with 5 minute each time. Cells were incubated with DAPI (Beyotime; 1 μg/ml) for 10 minutes and washed with 1×PBS for 3 times with 5 minute each time. […] SERD induced ER degradation in the MCF-7 cells were measured using DMSO negative control as the baseline.

[2] = Human hepatocyte clearance study; type: in vitro ADME; conditions: pooled cryopreserved human hepatocytes (suspension); for hepatocyte CLint at 1 µM / half-life at 1 µM: human; for hepatocyte CLint at 1 µM: read-out: Human In vitro Clint (μL/min/10^6 cells); for half-life at 1 µM: read-out: Human In vitro T1/2; for CLint scaled at 1 µM: human hepatocytes, scaling factor 2544.3, read-out: Human Scale-up Clint
Procedure: (§1) The in vitro hepatocyte clearance of compound described here was studied using pooled human hepatocytes purchased from BioreclamationlVT (Westbury, NY, Cat #X008001, Lot #TQJ). Assay was conducted according to manufacture's instruction. Briefly, mM tock solutions of test compound and positive control (Verapamil) were prepared in 100% DMSO. Thawing media (50 mL) used in the study consists of: 31 mL Williams E medium (GIBCO Cat #12551-032); 15 mL isotonic percoll (GE Healthcare Cat #17-0891-09); 500 uL 100×GlutaMax (GIBCO Cat #35050); 750 uL HEPES (GIBCO Cat #15630-080); 2.5 mL FBS (Corning Cat #35-076-CVR); 50 uL human insulin (GIBCO Cat #12585-014) and 5 uL dexamethasone (NICPBP). Incubation media is made of Williams E medium supplemented with 1×GlutaMax. Thawing medium and supplement incubation medium (serum-free) were placed in a 37° C. water bath for at least 15 minutes prior to use. Compound stock solutions were diluted to 100 μM by combining 198 μt of 50% acetonitrile/50% water and 2 μL of 10 mM stock solution. Verapamil was use as positive control in the assay. Vials of cryopreserved hepatocytes were removed from storage and thawed in a 37° C. water bath with gentle shaking. Contents of the vial were poured into the 50 mL thawing medium conical tube. Vials were centrifuged at 100 g for 10 minutes at room temperature. Thawing medium was aspirated and hepatocytes were re-suspended with serum-free incubation medium to yield ˜1.5×10^6 cells/mL. Hepatocyte viability and density were counted using a Trypan Blue exclusion, and then cells were diluted with serum-free incubation medium to a working cell density of 0.5×10^6 viable cells/mL. Then, a portion of the hepatocytes at 0.5×10^6 viable cells/mL was boiled for 5 min prior to adding to the plate as negative control to eliminate the enzymatic activity so that little or no substrate turnover should be observed. The boiled hepatocytes were used to prepare negative samples. Aliquots of 198 μL hepatocytes were dispensed into each well of a 96-well non-coated plate. The plate was placed in the incubator on an orbital shaker at 500 rpm for approximately 10 minutes. Aliquots of 2 μL of the 100 μM test compound or positive control were added into respective wells of the non-coated 96-well plate to start the reaction. This assay was performed in duplicate. The plate was incubated in the incubator on an orbital shaker at 500 rpm for the designed time points. Twenty-five microliter of contents were transferred and mixed with 6 volumes (150 μL) of cold acetonitrile with IS (200 nM imipramine, 200 nM labetalol and 200 nM diclofenac) to terminate the reaction at time points of 0, 15, 30, 60, 90 and 120 minutes. Samples were centrifuged at 3,220 g for 25 minutes and aliquots of 150 μL of the supernatants was used for LC-MS/MS analysis. For data analysis, all calculations were carried out using Microsoft Excel. Peak areas were determined from extracted ion chromatograms. The in vitro half-life (t1/2) of parent compound was determined by regression analysis of the percent parent disappearance vs. time curve. The in vitro half-life (in vitro t1/2) was determined from the slope value: in vitro t1/2=0.693/k. […] Scaling factors for in vivo intrinsic clearance prediction using human hepatocytes are listed as: liver weight (g liver/kg body weight): 25.7; hepatocyte concentration (10^6 cells/g liver): 99; scaling factor: 2544.3.

[3] = tested on: pooled human hepatocytes; test: Human hepatocyte clearance study; type: in vitro ADME; conditions: human hepatocytes 0.5x10^6 viable cells/mL, 120 min
Procedure: as §1

[4] = molecular target: T1, ER; conditions: intramuscular injection monthly; cited from earlier work
[5] = tested on: breast cancer cell line MCF-7; test: MCF-7 cell growth study (celltiter-glo luminescent viability assay); type: cell-based, human; conditions: Homo sapiens, MCF7, 144 h, MCF-7 cells, 6 days incubation; read-out: IC50 (nM), cell growth inhibition;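 also: viability read by luminescence after compound exposure, relative to DMSO vehicle-treated wells on the same plate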
Procedure: Compound activity was analyzed using celltiter-glo luminescent viability assay (Promega #G7572) in breast cancer cell line MCF-7. Cells grown in log phase are trypsinized and seeded into a 96-well cell culture plate at a density of 2×10^3 per well and incubated overnight at 37° C. with 5% CO2 in humidified culture chamber. The next day, compounds were prepared in 100% DMSO and were serially diluted and added into cells in the following final concentrations: 316, 100, 31.6, 10, 3.16, 1, 0.32, 0.1, 0.03, 0.01, 0.003 and 0.001 nM. As a control, same volume and concentration of DMSO vehicle control solution was added to the control wells in each plate. The cells were incubated with compounds at 37° C. culture chamber for 6 days. Promega's celltiter-glo kit was used to analyze the cell viability, according to manufacture's instruction. Briefly, fifty microliter of celltiter-glo reagent was added to each well, plate (covered with aluminum foil) was gently vibrated for 10 min to induce cell lysis at room temperature. Luminescence was measured using a SPECTRAmax i3 reader.

[6] = tested on: xMCF-7 xenograft tumor; test: Human breast cancer xMCF-7 xenograft efficacy study in mouse; type: in vivo; conditions: for tumor growth inhibition and tumor regression (FIG. 2): 2 mg/kg orally, once daily for 28 days, start at tumor ~250 mm^3
Procedure: To investigate the in vivo efficacy of SERD compounds described in this application, female nude mice were inoculated with human ER+ breast cancer cells xMCF-7. xMCF-7 cells are derived from MCF-7 (ATCC) tumor grown in the nude mice. Briefly, female balb/c mice (age 6-7 wk) were first inoculated subcutaneously on the back with estrogen pellet (0.5 mg, 60-day release from Innovative Research of America, Cat #SE-121). Two days later, each mouse was inoculated with 5 million xMCF-7 cells, prepared as 0.2 ml cell suspension in 1:1 mix of Eagle's MEM to cell culture media and Matrigel (Corning Cat #354234) for each injection. After tumor size reached ˜235 mm^3, mice with xMCF-7 xenograft tumor are randomized to 10 mice per group and started receiving drug treatment.
In another xMCF-7 study, treatment initiated when tumor reached ˜250 mm^3. Each drug was given at 2 mg/kg orally, once daily for 28 days.

[7] = Mouse PK study (iv 3 mpk, po 30 mpk); type: in vivo, male CD1 mice; conditions: male, CD1, whole blood; for clearance: 3 mg/kg, IV 3 mpk, read-out: Mouse IV 3 mpk CL (converted); for AUC(0-t) / half-life: 30 mg/kg, PO 30 mpk; for AUC(0-t): read-out: Mouse PO 30 mpk AUC last; for half-life: read-out: Mouse PO 30 mpk T½ (converted)
Procedure: Mouse PK study (iv 3 mpk, and po 30 mpk) was conducted using male CD1 mice (25-33 g) obtained from SLAC Laboratory Animal Co., LTD of Shanghai). Compound is prepared with the following formulation: 5% DMSO, 5% Solutol HS 15 and 9% HPBCD in water. For intravenous (iv) dose at 3 mpk and oral (po) dose at 30 mpk, the compound is formulated at the concentration […] and […], respectively. Compound formulation is freshly made prior to dosing in the morning. Oral dosing is via the use of oral gavage at 10 mL/kg, while iv dosing is via tail vein at 5 mL/kg. Three mice are used for each dosing route per compound per dose. Serial blood sample (30 uL whole blood at each time point) is collected into the K2EDTA tubes via facial vein at the following time points: 5 min (for iv route only), 30 min, 1, 2, 4, 6, 8, 12 and 24 hours. For each blood sample collected, immediately transfer 20 uL blood sample and mix well with 60 uL water in a 96-well plate (whole blood:water=1:3 v/v). Diluted blood samples are stored at −80C freezer until analysis. For analysis, an aliquot of 20 μL sample was added with 200 μL IS (Glipizide, 100 ng/mL) in ACN. The mixture was vortexed for 2 min and centrifuged at 5800 rpm for 10 min. An aliquot of 2 μL supernatant was injected for LC-MS/MS analysis. Compound at 2.0-3000 ng/mL in CD1 mouse diluted blood is used for calibration curve. Pharmacokinetic data are obtained and described in the table below: […]

T1 sequence (P03372 whole entry): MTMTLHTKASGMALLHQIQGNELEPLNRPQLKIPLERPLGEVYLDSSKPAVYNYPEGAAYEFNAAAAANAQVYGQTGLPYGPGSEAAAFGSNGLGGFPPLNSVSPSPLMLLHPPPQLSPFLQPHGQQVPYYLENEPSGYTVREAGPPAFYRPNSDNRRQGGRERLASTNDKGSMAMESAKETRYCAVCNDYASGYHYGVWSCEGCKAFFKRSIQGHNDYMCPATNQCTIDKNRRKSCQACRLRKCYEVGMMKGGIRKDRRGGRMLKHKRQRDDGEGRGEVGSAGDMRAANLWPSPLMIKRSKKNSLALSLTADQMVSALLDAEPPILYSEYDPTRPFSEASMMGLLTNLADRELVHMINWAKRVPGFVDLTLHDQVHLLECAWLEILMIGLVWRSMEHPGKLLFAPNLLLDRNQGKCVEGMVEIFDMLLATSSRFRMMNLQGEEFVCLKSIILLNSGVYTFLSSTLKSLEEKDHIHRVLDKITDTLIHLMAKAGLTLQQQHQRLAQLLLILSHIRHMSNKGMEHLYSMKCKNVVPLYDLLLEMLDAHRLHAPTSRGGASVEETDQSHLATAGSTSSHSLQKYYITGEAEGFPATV

C[C@]12CC[C@@H]3c4ccc(O)cc4C[C@@H](CCCCCCCCC[S+]([O-])CCCC(F)(F)C(F)(F)F)[C@H]3[C@@H]1CC[C@@H]2O (stereo partly shown) [Fulvestrant, reference compound]
MCF7 ER Degradation at 4 hr (%) [1]: 29% | MCF7 ER Degradation at 24 hr (%) [1]: 15% | hepatocyte CLint at 1 µM [2]: 33 µL/min/1e6 cells | half-life at 1 µM [2]: 0.7 h | CLint scaled at 1 µM [2]: 86 mL/min/kg | Human Hepatocyte Remaining Percentage @ 120 min (%) [3]: 12% | ER degradation in clinical samples [4]: ~50%

C[C@@H]1Cc2c([nH]c3ccccc23)[C@@H](c2c(F)cc(OCCN3CC(CF)C3)cc2Cl)N1CC(C)(F)F [Compound 12]
IC50 [5]: 0.26 nM | tumor growth inhibition and tumor regression (FIG. 2) [6]: more efficacious than AZD9496

CC/C(=C(/c1ccc(/C=C/C(=O)O)cc1)c1ccc2[nH]ncc2c1)c1ccc(F)cc1Cl [GDC-0810, reference compound]
hepatocyte CLint at 1 µM [2]: 24.6 µL/min/1e6 cells | half-life at 1 µM [2]: 0.933 h | CLint scaled at 1 µM [2]: 63 mL/min/kg | Human Hepatocyte Remaining Percentage @ 120 min (%) [3]: 24% | clearance [7]: 15.3 mL/min/kg | AUC(0-t) [7]: 80 µM·h | half-life [7]: 2.9 h

C[C@@H]1Cc2c([nH]c3ccccc23)[C@@H](c2c(F)cc(/C=C/C(=O)O)cc2F)N1CC(C)(C)F [AZD9496, reference compound]
MCF7 ER Degradation at 4 hr (%) [1]: 17% | MCF7 ER Degradation at 24 hr (%) [1]: 23% | hepatocyte CLint at 1 µM [2]: 9 µL/min/1e6 cells | half-life at 1 µM [2]: 2.55 h | CLint scaled at 1 µM [2]: 23 mL/min/kg | Human Hepatocyte Remaining Percentage @ 120 min (%) [3]: 58% | clearance [7]: 19 mL/min/kg | AUC(0-t) [7]: 85 µM·h | half-life [7]: 3.5 h

C[C@@H]1Cc2c([nH]c3ccccc23)[C@@H](c2c(Cl)cc(/C=C/C(=O)O)cc2Cl)N1CC(C)(F)F [Compound 25]
IC50 [5]: 0.8 nM | clearance [7]: 1.33 mL/min/kg | AUC(0-t) [7]: 658 µM·h | half-life [7]: 62 h | tumor growth inhibition and tumor regression (FIG. 2) [6]: more efficacious than AZD9496 | tumor growth inhibition (tumor volume change, FIG. 1) ([6]; oral 5 mg/kg or 30 mg/kg once a day for 28 days, fulvestrant 250 mg/kg subcutaneously, start at tumor ~235 mm^3): more efficacious in vivo than fulvestrant, GDC-0810 and AZD9496
